Results: ChEMBL document CHEMBL3044550, “Insect antifeedant potent 6-substituted -bromo-2-naphthones” (2011)
Calls of active or inactive are those of the source. The rule behind the calls is not given here.

Tests used:
[1] = test system: Achaea janata; test: Achaea janata L. fourth-instar larvae fed on 200 ppm compound pre-treated castor leaves for 24 hrs assessed total leaf disks consumed in 24 hrs by leaf disk bioassay; format: functional
[2] = test system: Achaea janata; test: Antifeedant activity against Achaea janata L. fourth-instar larvae fed on 100 ppm compound pre-treated castor leaves for 24 hrs assessed total leaf disks consumed in 24 hrs by leaf disk bioassay; format: functional, organism-based

SMILES | Activity [1] | Activity [2]
O=C(CBr)c1ccc2cc(O)ccc2c1 | 4 | 
O=C(CBr)c1ccc2cc(Br)ccc2c1 | 3.5 | Active
COc1ccc2cc(C(=O)CBr)ccc2c1 | 4 | 
Cc1ccc2cc(C(=O)CBr)ccc2c1 | 9 | 
O=C(CBr)c1ccc2cc(F)ccc2c1 | 5 | 
O=C(CBr)c1ccc2cc(Cl)ccc2c1 | 4.5 | 
CS(=O)(=O)c1ccc2cc(C(=O)CBr)ccc2c1 | 9 | 
O=C(CBr)c1ccc2ccccc2c1 | 6.5 | 
CSc1ccc2cc(C(=O)CBr)ccc2c1 | 8 | 
